Among the data in US10669258B2, “3-sulfonyl-5-aminopyridine-2,4-diol APJ agonists” (BRISTOL-MYERS SQUIBB COMPANY, priority 2016, dated 2020) are EC50 values, retold here.

One assay deals with T1, human APJ receptor (Homo sapiens, UniProt P35414).
T1 construct: expressed in transfected cells; host or cells: HEK293
T1 sequence (P35414 1-380): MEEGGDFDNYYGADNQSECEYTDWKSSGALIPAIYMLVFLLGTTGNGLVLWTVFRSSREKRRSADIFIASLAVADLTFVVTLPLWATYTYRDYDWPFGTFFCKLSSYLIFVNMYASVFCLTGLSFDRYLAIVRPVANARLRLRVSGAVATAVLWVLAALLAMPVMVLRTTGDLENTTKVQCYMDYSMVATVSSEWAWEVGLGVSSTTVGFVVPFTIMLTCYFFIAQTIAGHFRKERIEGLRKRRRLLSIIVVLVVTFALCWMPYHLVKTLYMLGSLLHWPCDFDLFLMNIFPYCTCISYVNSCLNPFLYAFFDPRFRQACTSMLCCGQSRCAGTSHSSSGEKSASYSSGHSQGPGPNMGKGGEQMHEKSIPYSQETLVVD
Put plainly: Intracellular cAMP accumulation assay (APJ hcAMP, HTRF). The conditions noted are these: HEK293 cells stably expressing human APJ receptor; inhibition of forskolin-mediated cAMP production; Table 1; read-out: hAPJ cAMP EC50 Potency range. The format is cell-based. As to the method: Intracellular cAMP Accumulation Assay
HEK293 cells stably expressing human APJ receptor were used to assess the activity of compounds. Cultured cells were detached and resuspended in the cAMP Homogeneous Time-Resolved Fluorescence (HTRF) assay buffer (Cisbio cat; #62AM4PEJ). The assay was performed in 384-well assay plates (Perkin-Elmer; cat #6008289) according to assay protocol provided by the manufacturer. Serial dilutions of a compound together with assay buffer containing […] IBMX and 2 μM forskolin were added to each well containing 5,000 cells and incubated for 30 minutes at room temperature. Subsequently, cAMP D2 reagent was added in the lysis buffer followed by the EuK antibody (Cisbio; cat #62AM4PEJ) and incubated for 60 min. The fluorescence emission ratio was measured using fluorometer. The intracellular cAMP concentrations (compound-stimulated inhibition of forskolin-mediated cAMP production) were calculated by extrapolation from a standard curve using known cAMP concentrations. The EC50 values were obtained by fitting the data to a sigmoidal concentration-response curve with variable slope. The maximal achievable inhibition of forskolin-induced cAMP levels (Ymax) for each compound was expressed as relative percentage of inhibition attained using pyroglutamated apelin-13 ((Pyr1)apelin-13) peptide, which was set to 100%.
The examples disclosed below were tested in the APJ in vitro assays described above and were found having human APJ cyclic AMP (hcAMP) activity. The EC50 value of each compound is presented at the end of the example description.
The biological activity of the exemplified compounds of this invention determined by the assay described above is shown at the end of each example.
Broadly, the EC50 is the concentration at which the effect is half-maximal. Turning to `CCN(c1ccccc1)c1c(-c2cnn(C)c2)nc(O)c(S(=O)(=O)c2ccc(-c3ccc(F)nc3C)cc2)c1O` [Example 152, 5-(ethyl(phenyl)amino)-3-((4-(6-fluoro-2-methylpyridin-3-yl)phenyl)sulfonyl)-6-(1-methyl-1H-pyrazol-4-yl)pyridine-2,4-diol], the 50% effective concentration (EC50) lay in the range of 0.01 to 10 nM.
Take `CCCCc1nc(O)c(S(=O)(=O)c2ccc(-c3ccc(F)nc3C)cc2)c(O)c1N(C)c1ccccc1` [Example 015, 6-butyl-3-((4-(6-fluoro-2-methylpyridin-3-yl)phenyl)sulfonyl)-5-(methyl(phenyl)amino)pyridine-2,4-diol]: the EC50 was 0.01 to 10 nM.
The same measure, in the same setting: under `CCCCc1nc(O)c(S(=O)(=O)c2ccc(-c3cccnc3C)cc2)c(O)c1N1CCCCc2ccccc21` [Example 173, 6-butyl-3-((4-(2-methylpyridin-3-yl)phenyl)sulfonyl)-5-(2,3,4,5-tetrahydro-1H-benzo[b]azepin-1-yl)pyridine-2,4-diol] stands 10 to 100 nM.
Turning to `CCN(c1ccccc1)c1c(CC2CC2)nc(O)c(S(=O)(=O)c2ccc(-c3ccccc3C(=O)NC)cc2)c1O` [Example 055, 4′-((6-(cyclopropylmethyl)-5-(ethyl(phenyl)amino)-2,4-dihydroxypyridin-3-yl)sulfonyl)-N-methyl-[1,1′-biphenyl]-2-carboxamide], the 50% effective concentration (EC50) was 0.01 to 10 nM.
Take `CCCCc1nc(O)c(S(=O)(=O)c2ccc(-c3cccnc3C)cc2)c(O)c1N(C)c1cccc(C)c1` [Example 096, 6-butyl-5-(methyl(m-tolyl)amino)-3-((4-(2-methylpyridin-3-yl)phenyl)sulfonyl)pyridine-2,4-diol]: the EC50 fell in the range of 0.01 to 10 nM.
The same measure, in the same setting: under `CCCCc1nc(O)c(S(=O)(=O)c2ccc(-c3ccccc3C#N)cc2)c(O)c1N(CC)c1ccccc1` [Example 083, 4′-((6-butyl-5-(ethyl(phenyl)amino)-2,4-dihydroxypyridin-3-yl)sulfonyl)-[1,1′-biphenyl]-2-carbonitrile] stands 0.01 to 10 nM.
With `CCN(c1cccc(C#N)c1)c1c(-c2ccn(C)n2)nc(O)c(S(=O)(=O)c2ccc(-c3ccc(F)nc3C)cc2)c1O` [Example 213, 3-(ethyl(5-((4-(6-fluoro-2-methylpyridin-3-yl)phenyl)sulfonyl)-4,6-dihydroxy-2-(1-methyl-1H-pyrazol-3-yl)pyridin-3-yl)amino)benzonitrile], the EC50 was 0.01 to 10 nM.
As to `CCCCc1nc(O)c(S(=O)(=O)c2ccc(-c3ccnc(F)c3C)cc2)c(O)c1N(C)c1ccccc1F` [Example 125, 6-butyl-3-((4-(2-fluoro-3-methylpyridin-4-yl)phenyl)sulfonyl)-5-((2-fluorophenyl)(methyl)amino)pyridine-2,4-diol], the EC50 is 0.01 to 10 nM.
On to `CCN(c1cccc(C#N)c1)c1c(-c2ccn(C)n2)nc(O)c(S(=O)(=O)c2ccc(-c3ccccc3C(=O)NC)cc2)c1O` [Example 214, 4′-((5-((3-cyanophenyl)(ethyl)ami-no)-2,4-dihydroxy-6-(1-methyl-1H-pyrazol-3-yl)pyridin-3-yl)sulfonyl)-N-methyl-[1,1′-biphenyl]-2-carboxamide], for which the concentration giving a half-maximal response (EC50) was in the range of 0.01 to 10 nM.
Same read-out and setting: under `CCN(c1ccccc1)c1c(-c2ccn(C)n2)nc(O)c(S(=O)(=O)c2ccc(-c3ccc(F)nc3C)cc2)c1O` [Example 059, 5-(ethyl(phenyl)amino)-3-((4-(6-fluoro-2-methylpyridin-3-yl)phenyl)sulfonyl)-6-(1-methyl-1H-pyrazol-3-yl)pyridine-2,4-diol] stands 0.01 to 10 nM; under `CCCCc1nc(O)c(S(=O)(=O)c2ccc(-c3ccncc3C)cc2)c(O)c1N(C)c1ccccc1C` [Example 203, 6-butyl-5-(methyl(o-tolyl)amino)-3-((4-(3-methypyridin-4-yl)phenyl)sulfonyl)pyri-dine-2,4-diol], 0.01 to 10 nM.
With `CCCCc1nc(O)c(S(=O)(=O)c2ccc(-c3ccc(F)nc3C)cc2)c(O)c1N(C)c1ccccc1C` [Example 198, 6-butyl-3-((4-(6-fluoro-2-methylpyridin-3-yl)phenyl)sulfonyl)-5-(methyl(o-tolyl)amino)pyridine-2,4-diol], the EC50 lay in the range of 10 to 100 nM.
As to `CCN(c1ccccc1)c1c(-c2cnc(C)s2)nc(O)c(S(=O)(=O)c2ccc(-c3ccnc(F)c3C)cc2)c1O` [Example 191, 5-(ethyl(phenyl)amino)-3-((4-(2-fluoro-3-methylpyridin-4-yl)phenyl)sulfonyl)-6-(2-methylthiazol-5-yl)pyridine-2,4-diol], the concentration for a half-maximal effect (EC50) lay in the range of 0.01 to 10 nM.
Regarding `CCCCc1nc(O)c(S(=O)(=O)c2ccc(-c3ccc(F)nc3C)cc2)c(O)c1N1CCCc2ccccc21` [Example 021, 6-butyl-5-(3,4-dihydroquinolin-1(2H)-yl)-3-((4-(6-fluoro-2-methylpyridin-3-yl)phenyl)sulfonyl)pyridine-2,4-diol], the half-maximal effective concentration (EC50) is 0.01 to 10 nM.
The same measure, in the same setting: as for `CCCCc1nc(O)c(S(=O)(=O)c2ccc(-c3ccccc3C(=O)NC)cc2)c(O)c1N(C)c1cccc(C#N)c1` [Example 137, 4′-((6-butyl-5-((3-cyanophenyl)(methyl)amino)-2,4-dihydroxypyridin-3-yl)sulfonyl)-N-methyl-[1,1′-biphenyl]-2-carboxamide], the figure is 0.01 to 10 nM.
Take `CCCCc1nc(O)c(S(=O)(=O)c2ccc(-c3ccccc3C(=O)NC)cc2)c(O)c1N1CCCc2ccccc21` [Example 061, 4′-((6-butyl-5-(3,4-dihydroquinolin-1(2H)-yl)-2,4-dihydroxypyridin-3-yl)sulfonyl)-N-methyl-[1,1′-biphenyl]-2-carboxamide]: the 50% effective concentration (EC50) was 0.01 to 10 nM.
Turning to `CCN(c1ccccc1)c1c(-c2cccc(C)c2)nc(O)c(S(=O)(=O)c2ccc(Br)cc2)c1O` [Example 131, 3-((4-bromophenyl)sulfonyl)-5-(ethyl(phenyl)amino)-6-(m-tolyl)pyridine-2,4-diol], the EC50 was in the range of 10 to 100 nM.

Staying with this assay, now noted: HEK293 cells stably expressing human APJ receptor; inhibition of forskolin-mediated cAMP production; Table 2; read-out: hAPJ cAMP EC50 Potency range.
Consider `CCN(c1ccccc1)c1c(-c2ccn(C)n2)nc(O)c(C(=O)N2CCC(c3ccc(Cl)cn3)C2)c1O` (stereo not shown) [Example 200, (3-(5-chloropyridin-2-yl)pyrrolidin-1-yl)(5-(ethyl(phenyl)amino)-2,4-dihydroxy-6-(1-methyl-1H-pyrazol-3-yl)pyridin-3-yl)methanone], for which the 50% effective concentration (EC50) fell in the range of 0.01 to 10 nM.

Staying with this assay, now noted: hAPJ cAMP EC50 Potency range, HEK293 cells stably expressing human APJ receptor; inhibition of forskolin-mediated cAMP production; Table 1.
`CCCCc1nc(O)c(C(=O)N2CCN(Cc3cccc(Cl)c3Cl)CC2)c(O)c1N(CC)c1ccccc1` [Example 074, (6-butyl-5-(ethyl(phenyl)amino)-2,4-dihydroxypyridin-3-yl)(4-(2,3-dichlorobenzyl)piperazin-1-yl)methanone]: the half-maximal effective concentration (EC50) was 10 to 100 nM.
The same measure, in the same setting: under `CCCCc1nc(O)c(C(=O)N2CCC(c3ncc(Cl)cc3F)C2)c(O)c1N(CC)c1ccccc1` (stereo not shown) [Example 070, (6-butyl-5-(ethyl(phenyl)amino)-2,4-dihydroxypyridin-3-yl)(3-(5-chloro-3-fluoropyridin-2-yl)pyrrolidin-1-yl)methanone] stands 0.01 to 10 nM; under `CCCCc1nc(O)c(C(=O)N2CCC(c3ccccc3F)C2)c(O)c1N(CC)c1ccccc1` (stereo not shown) [Example 075, (6-butyl-5-(ethyl(phenyl)amino)-2,4-dihydroxypyridin-3-yl)(3-(2-fluorophenyl)pyrrolidin-1-yl)methanone], 0.01 to 10 nM.
On the same count and under the same terms, under `CCCCc1nc(O)c(C(=O)N2CC[C@@H](c3ccccc3)C2)c(O)c1N(C)c1ccccc1` [Example 007, (S)-(6-butyl-2,4-dihydroxy-5-(methyl(phenyl)amino)pyridin-3-yl)(3-phenylpyrrolidin-1-yl)methanone] stands 10 to 100 nM.
